Reference: patent US8883964B2, “Compositions comprising modified collagen and uses therefor” (The Johns Hopkins University, priority 2004, dated 2014)

Experiments:
[1] = test system: breast epithelial cells (MCF-7); test: Cell adhesion study on treated collagen film, breast epithelial cells; assay type: cell-based, human; settings: for invasion of treated films by fibroblasts or epithelial cells: summary statement
Procedure: (§1) The melting temperature of 5 was determined to be 29° C. which is 7° C. lower than the melting temperature of (ProHypGly)7 (SEQ ID NO: 40) (Table 1).^27 Here, the hydrophilic and bulky PEG group seems to destabilize the triple helix in water. A solution containing 5 at 45° C. was added to the collagen coated culture plate (prepared as above) and human fibroblasts or breast epithelial cells were seeded and incubated for three days at 37° C. […] In contrast, areas of collagen films treated with 5 are almost devoid of fibroblasts (FIG. 7B) and epithelial cells (FIG. 7C).
For applications where it is desirable to repel cell growth for prolonged periods (e.g., weeks or months), it is desirable to employ CMPs of increased length. In films that were treated with mPEG2000-Gly3-(Pro-Hyp-Gly)7 (SEQ ID NO: 6), cell growth extending into the treated area was observed after 3 days in culture (FIGS. 9A, 9B, and 9C). This might be due to the release of mPEG2000-Gly3-(Pro-Hyp-Gly)7 (SEQ ID NO: 6) from the PEG-CMP modified collagen film during incubation at 37° C.
(Pro-Hyp-Gly)8-Gly3-PEG5000-OH (SEQ ID NO: 26) with lengthened CMP and PEG, was designed to prolong the anti-adhesive property of pegylated CMP modified collagen to cells. Its melting temperature is 38° C. in PBS solution. A delay in invasive cell growth was observed on areas of the collagen film treated with (Pro-Hyp-Gly)8-Gly3-PEG5000-OH (SEQ ID NO: 26) (FIGS. 10A and FIG. 10B). […] It can also be seen from the images that cells outside the treated area grow vertically before invading the treated area.
(§2) To the collagen film (prepared as above) was added 10 μl of peptide 5 solution (2 mM in pH 7.4 potassium phosphate buffer). The film was allowed to dry and excess materials were removed by washing with potassium phosphate buffer (pH 7.4, 50 mM) and culture medium (DMEM or IMDM). Cells were added to the culture well and incubated at room temperature for 30 minutes. Human fibroblasts (CRL-1502) were seeded at 4.5×10^5 cell/ml cell density in DMEM and breast epithelial cells (MCF-7) at 5.6×10^5 cells/ml density in cell culture media (IMDM). The nonattached cells were removed by rinsing the well three times with growth medium and PBS buffer. The remaining cells were incubated at 37° C. (5% CO2) for three days. The growth medium was exchanged after 48 hours.

[2] = test system: Human fibroblasts (CRL-1502); test: Cell adhesion study on treated collagen film, human fibroblasts; assay type: cell-based; settings: three days at 37° C.
Procedure: as §1, §2

[3] = Circular dichroism thermal melting (triple helix transition temperature); assay type: physicochemical; settings: for Tm (transition temperature determined by circular dichroism spectroscopy): measured in 57.5 μM acetic acid solution
Procedure: Circular dichroism (CD) spectra were recorded on JASCO 710 spectrometer equipped with JASCO PTC-348 WI temperature controller and Hellma cell (400 μL, 0.1 mm pathlength). The thermal melting curves were obtained by measuring the molar ellipticity at 225 nm with 1° C./min heating rate. All samples (57 μM in 50 mM acetic acid) were stored at 4° C. for 24 hours before the CD measurement.
The thermal melting curves were obtained by measuring the ellipticity of peptide in deionized (DI) water (0.5˜2 mM) at 225 nm with 0.1° C./min heating rate. All samples were stored at 4° C. for 24 hours before the measurement. (FIG. 15)
Triple-helical conformation of the CMP was confirmed by circular dichroism (CD) spectroscopy. Peptide samples (250 or 500 μM) were prepared in distilled water and incubated at 4° C. overnight before the CD measurement. CD was recorded between 180 and 280 nm on a JASCO'710 CD spectrometer at various temperatures under a nitrogen flow. Each measurement had static equilibrium time of 30 minutes.

[4] = molecular target: T1, collagen films (type I, bovine) (Bos taurus, UniProt P02453+P02465); test: CMP-collagen film affinity study (fluorescence intensity of treated films); assay type: binding; settings: for affinity toward collagen film (fluorescence intensity): solution pre-equilibrated at 25° C. or 80° C., both conditions, 3 h at room temperature
T1 construct: natural collagen (acid soluble, bovine type I); purchased Sigma
T1 sequence (P02453 162-1217 limits assumed): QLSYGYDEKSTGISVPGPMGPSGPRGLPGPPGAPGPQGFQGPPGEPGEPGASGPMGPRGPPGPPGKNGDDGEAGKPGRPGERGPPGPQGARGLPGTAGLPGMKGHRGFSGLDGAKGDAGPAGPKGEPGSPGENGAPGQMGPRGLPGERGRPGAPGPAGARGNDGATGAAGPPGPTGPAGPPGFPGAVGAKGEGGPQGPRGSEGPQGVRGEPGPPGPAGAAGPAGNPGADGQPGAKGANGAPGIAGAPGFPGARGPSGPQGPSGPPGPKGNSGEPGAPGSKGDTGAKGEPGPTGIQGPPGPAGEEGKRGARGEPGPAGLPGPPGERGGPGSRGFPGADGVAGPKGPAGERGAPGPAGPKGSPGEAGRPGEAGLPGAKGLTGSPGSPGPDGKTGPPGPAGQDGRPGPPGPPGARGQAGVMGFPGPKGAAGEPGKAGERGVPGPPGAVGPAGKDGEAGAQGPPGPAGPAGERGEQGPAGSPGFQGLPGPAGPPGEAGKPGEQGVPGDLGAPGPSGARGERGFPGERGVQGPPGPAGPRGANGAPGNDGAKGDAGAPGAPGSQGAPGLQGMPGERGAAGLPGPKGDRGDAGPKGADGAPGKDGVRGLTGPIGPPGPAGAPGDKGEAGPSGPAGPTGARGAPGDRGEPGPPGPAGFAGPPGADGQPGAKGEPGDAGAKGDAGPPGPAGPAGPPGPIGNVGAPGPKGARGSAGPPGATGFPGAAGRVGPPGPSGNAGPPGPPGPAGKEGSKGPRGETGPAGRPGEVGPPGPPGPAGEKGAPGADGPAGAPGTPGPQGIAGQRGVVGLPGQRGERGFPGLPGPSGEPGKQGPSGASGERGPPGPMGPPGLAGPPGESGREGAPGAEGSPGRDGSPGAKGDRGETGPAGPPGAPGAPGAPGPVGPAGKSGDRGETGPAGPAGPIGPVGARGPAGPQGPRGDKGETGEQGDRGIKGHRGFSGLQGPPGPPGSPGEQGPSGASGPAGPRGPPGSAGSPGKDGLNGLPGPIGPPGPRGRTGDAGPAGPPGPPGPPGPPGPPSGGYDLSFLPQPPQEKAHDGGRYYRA
T1 sequence (P02465 80-1117 limits assumed): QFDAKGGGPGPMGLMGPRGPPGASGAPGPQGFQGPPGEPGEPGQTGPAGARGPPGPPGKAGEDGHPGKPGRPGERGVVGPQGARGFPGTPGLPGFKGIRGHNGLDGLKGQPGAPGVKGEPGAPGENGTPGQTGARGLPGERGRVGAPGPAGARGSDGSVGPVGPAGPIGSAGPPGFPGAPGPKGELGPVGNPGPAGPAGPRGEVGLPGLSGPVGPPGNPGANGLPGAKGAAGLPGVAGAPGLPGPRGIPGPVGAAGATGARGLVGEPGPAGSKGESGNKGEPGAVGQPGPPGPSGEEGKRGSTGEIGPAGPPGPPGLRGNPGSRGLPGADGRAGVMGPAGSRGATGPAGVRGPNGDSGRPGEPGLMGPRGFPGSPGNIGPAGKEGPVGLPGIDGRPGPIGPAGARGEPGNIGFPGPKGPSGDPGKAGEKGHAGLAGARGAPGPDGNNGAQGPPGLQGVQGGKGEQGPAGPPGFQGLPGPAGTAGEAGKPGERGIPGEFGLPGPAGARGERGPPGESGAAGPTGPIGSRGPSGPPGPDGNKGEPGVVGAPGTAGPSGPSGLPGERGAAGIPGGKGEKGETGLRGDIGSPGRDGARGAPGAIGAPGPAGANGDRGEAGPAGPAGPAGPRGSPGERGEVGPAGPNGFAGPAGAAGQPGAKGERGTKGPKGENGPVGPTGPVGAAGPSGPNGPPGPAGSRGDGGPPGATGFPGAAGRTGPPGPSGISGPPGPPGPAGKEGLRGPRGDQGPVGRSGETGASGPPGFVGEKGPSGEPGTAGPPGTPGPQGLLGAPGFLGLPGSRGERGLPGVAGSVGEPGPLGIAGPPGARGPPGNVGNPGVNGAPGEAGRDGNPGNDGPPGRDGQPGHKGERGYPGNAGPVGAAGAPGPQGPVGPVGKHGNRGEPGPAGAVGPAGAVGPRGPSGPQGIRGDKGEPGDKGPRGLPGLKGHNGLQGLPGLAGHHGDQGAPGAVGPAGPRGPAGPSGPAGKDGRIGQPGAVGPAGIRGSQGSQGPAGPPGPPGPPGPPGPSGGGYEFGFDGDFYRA
Procedure: The transition melting temperature of collagen film as determined by circular dichroism spectroscopy is shown at FIG. 4. To the collagen-coated cell culture wells (at room temperature) was added a solution of 2 which was pre-equilibrated at either 25° C. or 80° C. After three hours of incubation at room temperature, the collagen films were washed with buffer solution and observed by fluorescence microscope. As control samples, 5CF, fluorescein isothiocyanate-dextran (FITC-Dextran), and peptide 3 were used to treat collagen films under identical experimental conditions. […] Similar results were obtained when gelatin films were used as a substrate (FIG. 5A: Group c). In addition, the helical content of CMP treated collagen film was 3.5 times higher than that of the film treated with a blank solution (see support information).
In order to understand the effect of collagen film denaturation in the CMP binding process, a shorter CMP derivative was synthesized, peptide 4, with a melting temperature (25° C.) well below that of the collagen film. […] In addition, the modified collagen fiber retained its native banding texture when investigated by transmission electron microscopy (FIG. 6). Hotter solutions (60° C. and 80° C.) which denature the collagen film during the treatment produced collagen films with slightly higher CMP content (approximately 20% increase from that of the […] solution).
To each well of a 96-well culture plate was added 200 μl of saturated collagen (acid soluble, type I bovine) solution in 0.5 M acetic acid. The culture plate was air-dried to form transparent collagen films. The films were neutralized with 0.01 M potassium phosphate buffer (pH 7.4), and washed with distilled water. To the collagen-coated wells were added 40 μl of 0.01 M potassium phosphate solutions (pH 7.4) containing 50 μM of either CF (5-carboxyfluorescein), FITC-Dextran, and peptides 2, 3, or 4, which were pre-equilibrated at 25° C. or 80° C. After 3 hours of incubation at room temperature, the wells were washed with 0.01 M potassium phosphate buffer solution (pH 7.4) and observed by fluorescence microscope (Eclips ME 600, Nikon Corp). The total fluorescence intensity was acquired from the fluorescence micrographs using Meta Imaging Series V4.5, (Universal Imaging Corporation, Dowingtown Pa.). Average values of four independent experiments are reported.

[5] = molecular target: T2, Collagen (type I, bovine) film (Bos taurus, UniProt P02453+P02465); test: Helical content estimation of the modified collagen films by CD
T2 construct: natural collagen (acid soluble, bovine type I); purchased Sigma
T2 sequence (P02453 162-1217 limits assumed): as the sequence (P02453 162-1217 limits assumed) above
T2 sequence (P02465 80-1117 limits assumed): as the sequence (P02465 80-1117 limits assumed) above
Procedure: Collagen (type I, bovine) film was treated with either peptide 2 solution or blank buffer solution as described before. After 3 hr of incubation at room temperature, the wells were washed with 0.01 M potassium phosphate buffer solution (pH 7.4) and deionized water. All samples were dissolved in 50 mM acetic acid to a concentration of 1.80 μM or 3.60 μM and stored at 4° C. for 24 hours before the CD measurement. Average values of four independent experiments are reported (FIG. 4).

[6] = Circular dichroism thermal melting (triple helix transition temperature); assay type: physicochemical; settings: in PBS solution
[7] = molecular target: T3, collagen film (Bos taurus, UniProt P02453+P02465); test: Release of fluorescence-labeled CMP derivatives from collagen films; settings: 37° C., PBS solution pH 7.4
T3 construct: natural collagen (acid soluble, bovine type I); purchased Sigma
T3 sequence (P02453 162-1217 limits assumed): as the sequence (P02453 162-1217 limits assumed) above
T3 sequence (P02465 80-1117 limits assumed): as the sequence (P02465 80-1117 limits assumed) above
Text: The release of fluorescence-labeled PEG-CMPs derivatives from collagen films is shown in (FIG. 11).

[8] = molecular target: T4, collagen fibers (type I) (Bos taurus, UniProt P02453+P02465); test: TEM analysis of the modified collagen fibers; parameters: species or system bovine; settings: treatment at 30° C.
T4 construct: natural collagen (acid soluble, bovine type I); purchased Sigma
T4 sequence (P02453 162-1217 limits assumed): as the sequence (P02453 162-1217 limits assumed) above
T4 sequence (P02465 80-1117 limits assumed): as the sequence (P02465 80-1117 limits assumed) above
Procedure: Collagen fibers were prepared by dialysis of collagen in 0.01M acetic acid solution against dilute NaCl solution. Peptide 4 in potassium phosphate buffer (400 μl, 500 μM, pH 7.4) was added to the collagen fibers in the PBS buffer (1 ml, 1 mg/ml, pH 7.4). The mixture was incubated for 3 hours and excess peptide 4 was removed by repeated centrifugation. The collagen fibers were resuspended in deionized water and transferred to a TEM grid. Uranyl acetate was used to stain the collagen fiber. (FIG. 6)

[9] = comparison value; cited from earlier work
[10] = solution pre-equilibrated at 80° C.

mPEG2000-Gly3-(ProHypGly)7- [Compound 5]
cell growth extending into the treated area observed after ([1]; in culture at 37° C.): 3 days | invasion of treated films by fibroblasts or epithelial cells [1]: dramatically reduced invasion | epithelial cells on treated area of collagen film ([1]; three days at 37° C.): almost devoid | fibroblasts on treated area of collagen film [2]: almost devoid | melting temperature lower than that of (ProHypGly)7 ([3]; difference): 7 °C | Tm (transition temperature determined by circular dichroism spectroscopy) [3]: 29 °C

5CF-Gly3-(ProHypGly)10- [Compound 2]
fluorescence of treated collagen film ([4]; solution pre-equilibrated at 25° C.): negligible fluorescence | fluorescence of treated collagen film [4, 10]: strong fluorescence | helical content of treated collagen film relative to film treated with blank solution [5]: 3.5 times | original helical content of collagen film retained after treatment [5, 10]: 80% | Tm (CD melting transition temperature) ([3]; Cys-CMP derivatives, deionized water, ellipticity at 225 nm): 21 °C | Tm (transition temperature determined by circular dichroism spectroscopy) [3]: 75 °C | Tm (transition temperature determined by circular dichroism spectroscopy) ([3]; listed as peptide 2): 75 °C

(ProHypGly)7-Tyr
CD melting temperature (midpoint of CD melting curve) ([3]; peptide in distilled water): 38.5 °C

(Pro-Hyp-Gly)8-Gly3-PEG5000-OH
time for which the treated gel repelled extensive cell growth [1]: close to eleven days | cell invasion into treated areas of the collagen film ([1]; after eleven days in culture): Extensive invasion | cell invasion into treated areas of the collagen film ([1]; after five days in culture): little invasion | cell invasion into treated areas of the collagen film ([1]; after nine days in culture): moderate invasion | invasion of treated films by fibroblasts or epithelial cells [1]: dramatically reduced invasion | melting temperature [6]: 38 °C

O=C(O)c1ccc2c(c1)C(=O)OC21c2ccc(O)cc2Oc2cc(O)ccc21 [Compound 5CF, 5-carboxyfluorescein, reference compound]
affinity toward collagen film (fluorescence intensity) [4]: negligible affinity

FL-PEG2000-Gly3-(Pro-Hyp-Gly)7
release from collagen film relative to 5CF-Gly3-(Pro-Hyp-Gly)8-Gly3-PEG5000-OH [7]: faster

5CF-Gly3-(ProHypGly)6- [Compound 4]
banding pattern of collagen fibers after treatment [8]: native banding pattern | increase in CMP content of collagen film from that of the 30° C. solution ([4]; hotter solutions (60° C. and 80° C.)): approximately 20% | binding to collagen film ([4]; solution at 10° C.): Little binding | increase in CMP attachment compared to the 10° C. solution ([4]; solution pre-equilibrated at 30° C.): more than three-fold increase | Tm (transition temperature determined by circular dichroism spectroscopy) [3]: 25 °C | Tm (transition temperature determined by circular dichroism spectroscopy) ([3]; listed as peptide 4): 25 °C

CH3O—(CH2—CH2—O)n—OH [mPEG2000, reference compound]
fibroblasts on treated area of collagen film [2]: Homogenous distribution of fibroblasts

(Pro-Hyp-Gly)7
melting temperature of unmodified (Pro-Hyp-Gly)7 CMP [9]: 37 °C

-(ProHypGly)10- [Compound 1]
Tm (transition temperature determined by circular dichroism spectroscopy) [3]: 69 °C

fluorescein isothiocyanate-dextran [FITC-Dextran, reference compound]
affinity toward collagen film (fluorescence intensity) [4]: negligible affinity
